Consider 20 compounds from US10316017B2, “COT modulators and methods of use thereof” (Gilead Sciences, Inc., priority 2015, dated 2019).

Like-named read-outs stand apart in the source and are kept apart here.

Assay [1] has as its system TNFα production in LPS-stimulated human monocytes. Kind of assay: Cot Monocyte TNFα Cell Based Assay. The settings on record: Homo sapiens, Monocyte, read-out: EC50 TNF. In outline: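 TNFα release quantified by two-antibody TR-FRET, normalised to unstimulated (0%) and LPS-stimulated (100%) wells. Cells got a 1 h compound exposure at 37° C in 0.5% DMSO before 4 h challenge with 50 pg/ml LPS, at 5,000 cells/well.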

The target in assay [2] is T1, human Cot catalytic domain (30-397 amino acids) (Homo sapiens, UniProt P41279).
T1 construct: Purified recombinant human Cot catalytic domain (30-397 amino acids) was purchased from Cama Biosciences; purchased Cama Biosciences (so in the source)
Kind of assay: High Throughput Cot Biochemical Assay (KinEASE TR-FRET). The settings on record: read-out: IC50 HTRF. In a few lines:
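TR-FRET (KinEASE) read-out: Eu-labelled phospho-specific antibody binds XL665-tagged STK3 peptide (1 μM) phosphorylated by 5 nM human Cot kinase domain (residues 30-397). Reaction at 400 μM ATP, pH 7.0 MOPS buffer with 10 mM MgOAc, 1 mM DTT and 0.1% DMSO.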
On the technique in general: TR-FRET usually uses a lanthanide donor and a delayed reading to cut background.

Setting [3] is: TNFα in LPS-stimulated human monocytes.
[4] abbreviates: Cot biochemical HTRF (KinEASE TR-FRET) assay.
The mark [5] stands for this setting: Cot KinEASE TR-FRET (HTRF) biochemical assay, 400 μM ATP.
The mark [6] stands for this setting: LPS-stimulated human monocytes, TNFα TR-FRET.
Setting [7] is: Cot KinEASE TR-FRET, 400 μM ATP.

T1 sequence (P41279 30-397): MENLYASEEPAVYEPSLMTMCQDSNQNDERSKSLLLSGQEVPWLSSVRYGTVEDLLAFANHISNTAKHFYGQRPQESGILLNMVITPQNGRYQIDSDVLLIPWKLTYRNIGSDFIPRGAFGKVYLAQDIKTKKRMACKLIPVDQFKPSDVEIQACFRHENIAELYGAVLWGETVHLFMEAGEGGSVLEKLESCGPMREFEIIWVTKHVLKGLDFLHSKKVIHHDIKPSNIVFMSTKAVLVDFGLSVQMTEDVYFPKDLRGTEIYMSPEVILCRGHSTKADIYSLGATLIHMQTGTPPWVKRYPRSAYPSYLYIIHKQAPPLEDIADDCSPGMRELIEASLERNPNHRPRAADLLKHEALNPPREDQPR

With `CC(C)n1cc([C@@H](Nc2cc(Cl)c3ncc(C#N)c(N[C@H](C)c4ccccc4)c3c2)c2cccc(C(=O)N(C)C)c2)nn1` [Example 579, 3-((S)-((8-chloro-3-cyano-4-(((R)-1-phenylethyl)amino)quinolin-6-yl)amino)(1-isopropyl-1H-1,2,3-triazol-4-yl)methyl)-N,N-dimethylbenzamide], in assay [1] (setting [3]), the EC50 (commonly the concentration needed to bring the measured effect to its halfway point) was determined as 713 nM. Besides, the IC50 (as a rule, the midpoint of a concentration-inhibition curve) in assay [2] (setting [4]) was determined as 8 nM.

For the compound `[2H][C@](Nc1cc(Cl)c2ncc(C#N)c(NCC(C)(C)C)c2c1)(c1cn(C2CC2(F)F)nn1)c1ccccc1Cl` (stereo partly shown) [Example 99, 8-chloro-6-(((2-chlorophenyl) (1-(2,2-difluorocyclopropyl)-1H-1,2,3-triazol-4-yl)methyl-d)amino)-4-(neopentylamino) quinoline-3-carbonitrile], the EC50 in assay [1] (setting [3]) came to 454 nM. For the same compound, the IC50 in assay [2] (setting [5]) came out at 19 nM.

As to `Cc1nnc(C(Nc2cc(Cl)c3ncc(C#N)c(Nc4ccc(F)c(Cl)c4)c3c2)c2ccc(F)cc2)o1` (stereo not shown) [Example 734, 8-chloro-4-((3-chloro-4-fluorophenyl)amino)-6-(((4-fluorophenyl)(5-methyl-1,3,4-oxadiazol-2-yl)methyl)amino)quinoline-3-carbonitrile], the EC50 in assay [1] (setting [3]) amounted to 3900 nM. The IC50 in assay [2] (setting [4]) stood at 151 nM.

On to `CC1(Cn2cc([C@@H](Nc3cc(Cl)c4ncc(C#N)c(Nc5ccc(F)c(Cl)c5)c4c3)c3ccc(F)cc3)nn2)COC1` [Example 808, (S)-8-chloro-4-((3-chloro-4-fluorophenyl)amino)-6-(((4-fluorophenyl)(1-((3-methyloxetan-3-yl)methyl)-1H-1,2,3-triazol-4-yl)methyl)amino)quinoline-3-carbonitrile], for which the EC50 in assay [1] (setting [3]) stood at 434 nM. Also, the IC50 in assay [2] (setting [4]) was determined as 26 nM.

On to `C[C@H](Nc1c(C#N)cnc2c(Cl)cc(N[C@@H](c3ccc(Cl)cc3)c3cn(C4CCN(C(C)(C)C)CC4)nn3)cc12)c1ccccc1` [Example 705, 6-(((S)-(1-(1-(tert-butyl)piperidin-4-yl)-1H-1,2,3-triazol-4-yl)(4-chlorophenyl)methyl)amino)-8-chloro-4-(((S)-1-phenylethyl)amino)quinoline-3-carbonitrile], for which, in assay [1] (setting [3]), the EC50 is 12200 nM. In addition, the IC50 in assay [2] (setting [4]) is 2830 nM.

In the case of `Cc1ccccc1[C@@H](C)Nc1c(C#N)cnc2c(Cl)cc(N[C@@H](c3ccccc3)c3cn(C4CCN(C(C)(C)C)CC4)nn3)cc12` [Example 585, 6-(((S)-(1-(1-(tert-butyl)piperidin-4-yl)-1H-1,2,3-triazol-4-yl)(phenyl)methyl)amino)-8-chloro-4-(((R)-1-(o-tolyl)ethyl)amino)quinoline-3-carbonitrile], the EC50 in assay [1] (setting [3]) came out at 427 nM. Further, the IC50 in assay [2] (setting [4]) came out at 16 nM.

As to `CC(C)n1cc([C@@H](Nc2cc(Cl)c3ncc(C#N)c(Nc4ccc(F)c(Cl)c4)c3c2)c2cccc(N3CCCCC3=O)c2)nn1` [Example 547, (S)-8-chloro-4-((3-chloro-4-fluorophenyl)amino)-6-(((1-isopropyl-1H-1,2,3-triazol-4-yl) (3-(2-oxopiperidin-1-yl)phenyl)methyl)amino) quinoline-3-carbonitrile], the EC50 in assay [1] (setting [3]) was 508 nM. For the same compound, in assay [2] (setting [4]), the IC50 was found to be 2 nM.

On to `CC(C)(C)C(=O)OCn1cc([C@@H](Nc2cc(Cl)c3ncc(C#N)c(Nc4ccc(F)c(Cl)c4)c3c2)c2ccccc2)nn1` [Example 668, (S)-(4-(((8-chloro-4-((3-chloro-4-fluorophenyl)amino)-3-cyanoquinolin-6-yl)amino)(phenyl)methyl)-1H-1,2,3-triazol-1-yl)methyl pivalate], for which the EC50 in assay [1] (setting [3]) is 1610 nM. Moreover, in assay [2] (setting [4]), the IC50 was 97 nM.

`CC[C@@H](Nc1c(C#N)cnc2c(Cl)cc(N[C@@H](c3cccc(C(=O)N(C)C)c3)c3cn(C(C)C)nn3)cc12)c1ccccc1` [Example 599, 3-((S)-((8-chloro-3-cyano-4-(((R)-1-phenylpropyl)amino)quinolin-6-yl)amino)(1-isopropyl-1H-1,2,3-triazol-4-yl)methyl)-N,N-dimethylbenzamide]: in assay [1] (setting [3]), the EC50 worked out at 134 nM. Also, the IC50 in assay [2] (setting [4]) came to 3 nM.

For the compound `Cn1cc(Nc2c(C#N)cnc3c(Cl)cc(N[C@@H](c4ccccc4)c4cn(C5CCN(C(C)(C)C)CC5)nn4)cc23)ccc1=O` [Example 484, (S)-6-(((1-(1-(tert-butyl)piperidin-4-yl)-1H-1,2,3-triazol-4-yl)(phenyl)methyl)amino)-8-chloro-4-((1-methyl-6-oxo-1,6-dihydropyridin-3-yl)amino)quinoline-3-carbonitrile], the EC50 in assay [1] (setting [3]) was above 10000 nM. Also, the IC50 in assay [2] (setting [4]) turned out to be 371 nM.

On to `Cc1c([C@H](Nc2cc(C#N)c3ncc(C#N)c(NCC(C)(C)C)c3c2)c2cn(C3(C(F)(F)F)CC3)nn2)cccc1-n1ccnn1` [Example 1068, (S)-6-(((2-methyl-3-(1H-1,2,3-triazol-1-yl)phenyl)(1-(1-(trifluoromethyl)cyclopropyl)-1H-1,2,3-triazol-4-yl)methyl)amino)-4-(neopentylamino)quinoline-3,8-dicarbonitrile], for which the EC50 in assay [1] (setting [6]) is 58 nM. Besides, in assay [2] (setting [7]), the 50% inhibitory concentration (IC50) was found to be 3 nM.

For the compound `Cc1c(C#N)cccc1[C@H](Nc1cc(C#N)c2ncc(C#N)c(NCC(C)(C)C(F)(F)F)c2c1)c1cn(C23CC(C2)C3)nn1` [Example 1151, (S)-6-(((1-(bicyclo[1.1.1]pentan-1-yl)-1H-1,2,3-triazol-4-yl)(3-cyano-2-methylphenyl)methyl)amino)-4-((3,3,3-trifluoro-2,2-dimethylpropyl)amino) quinoline-3,8-dicarbonitrile], in assay [1] (setting [6]), the concentration for a half-maximal effect (EC50) came to 36 nM. Further, the IC50 in assay [2] (setting [7]) was 2 nM.

`CC(C)(C)N1CCC(n2cc([C@@H](Nc3cc(Cl)c4ncc(C#N)c(Nc5cnc(F)c(F)c5)c4c3)c3ccccc3)nn2)CC1` [Example 584, (S)-6-(((1-(1-(tert-butyl)piperidin-4-yl)-1H-1,2,3-triazol-4-yl)(phenyl)methyl)amino)-8-chloro-4-((5,6-difluoropyridin-3-yl)amino)quinoline-3-carbonitrile]: the EC50 in assay [1] (setting [3]) is 403 nM. The IC50 in assay [2] (setting [4]) came to 10 nM.

Turning to `[2H][C@](Nc1cc(Cl)c2ncc(C#N)c(N[C@H](CCC#N)c3ccccc3)c2c1)(c1cn(C2CC2)nn1)c1ccccc1Cl` [Example 89, 8-chloro-6-(((2-chlorophenyl) (1-cyclopropyl-1H-1,2,3-triazol-4-yl)methyl-d)amino)-4-(((R)-3-cyano-1-phenylpropyl)amino) quinoline-3-carbonitrile], the EC50 in assay [1] (setting [3]) is 38 nM. Moreover, in assay [2] (setting [5]), the IC50 stood at 2 nM.

With `N#Cc1cnc2c(Cl)cc(N[C@@H](c3ccc(F)cc3)c3cn(CC4(F)COC4)nn3)cc2c1Nc1cnc(F)c(F)c1` [Example 405, (S)-8-chloro-4-((5,6-difluoropyridin-3-yl)amino)-6-(((1-((3-fluorooxetan-3-yl)methyl)-1H-1,2,3-triazol-4-yl)(4-fluorophenyl)methyl)amino) quinoline-3-carbonitrile], in assay [1] (setting [3]), the EC50 amounted to 2300 nM. Further, in assay [2] (setting [4]), the IC50 worked out at 69 nM.

For `[2H][C@](Nc1cc(Cl)c2ncc(C#N)c(Nc3cnc(F)c(F)c3)c2c1)(c1ccc(F)cc1)c1cn(Cc2c(F)cccc2F)nn1` [Example 329, (S)-8-chloro-6-(((1-(2,6-difluorobenzyl)-1H-1,2,3-triazol-4-yl)(4-fluorophenyl)methyl-d)amino)-4-((5,6-difluoropyridin-3-yl)amino)quinoline-3-carbonitrile], the EC50 in assay [1] (setting [3]) was found to be 808 nM. Moreover, in assay [2] (setting [5]), the IC50 turned out to be 32 nM.

For `CCN1CCC(n2cc([C@@H](Nc3cc(Cl)c4ncc(C#N)c(N[C@H](CCC#N)c5ccccc5)c4c3)c3ccc(Cl)cc3)nn2)CC1` [Example 955, 8-chloro-6-(((S)-(4-chlorophenyl)(1-(1-ethylpiperidin-4-yl)-1H-1,2,3-triazol-4-yl)methyl)amino)-4-(((R)-3-cyano-1-phenylpropyl)amino)quinoline-3-carbonitrile], in assay [1] (setting [6]), the EC50 amounted to 31 nM. The IC50 in assay [2] (setting [7]) amounted to 2 nM.

On to `Cc1c(-c2cncn2C)cccc1[C@H](Nc1cc(Cl)c2ncc(C#N)c(NCC(C)(C)C)c2c1)c1cn(C2(C(F)(F)F)CC2)nn1` [Example 1120, (S)-8-chloro-6-(((2-methyl-3-(1-methyl-1H-imidazol-5-yl)phenyl)(1-(1-(trifluoromethyl)cyclopropyl)-1H-1,2,3-triazol-4-yl)methyl)amino)-4-(neopentylamino)quinoline-3-carbonitrile], for which the EC50 in assay [1] (setting [6]) was determined as 88 nM. Moreover, in assay [2] (setting [7]), the IC50 was 6 nM.

With `CC(C)(C)N1CCC(n2cc([C@@H](Nc3cc(Cl)c4ncc(C#N)c(Nc5ccc(F)c(Cl)c5)c4c3)c3cccc(CN4CCOCC4)c3)nn2)CC1` [Example 733, (S)-6-(((1-(1-(tert-butyl)piperidin-4-yl)-1H-1,2,3-triazol-4-yl)(3-(morpholinomethyl)phenyl)methyl)amino)-8-chloro-4-((3-chloro-4-fluorophenyl)amino)quinoline-3-carbonitrile], the EC50 in assay [1] (setting [3]) was 884 nM. The IC50 in assay [2] (setting [4]) was 6 nM.

With `[2H][C@](Nc1cc(C#N)c2ncc(C#N)c(NCC(C)(C)C)c2c1)(c1ccc(F)cc1)c1cn(C2(C(F)(F)F)CC2)nn1` [Example 130, (S)-6-(((4-fluorophenyl) (1-(1-(trifluoromethyl)cyclopropyl)-1H-1,2,3-triazol-4-yl)methyl-d)amino)-4-(neopentylamino) quinoline-3,8-dicarbonitrile], the EC50 in assay [1] (setting [3]) amounted to 195 nM. Besides, the IC50 in assay [2] (setting [5]) was 23 nM.
